The values below come from patent publication US10960020B2, “Modulation of PCSK9 and LDLR through DRP1 inhibition” (THE BRIGHAM AND WOMEN'S HOSPITAL, INC., priority 2016, dated 2021).

Assay [1] relates to BCL-XL. Briefly: BCL-XL mRNA and protein, HepG2. It counts as cell-based, human. Particulars: HepG2, Mdivi-1 50 μM, 24 hours. The text has this: Human cells and mouse liver was homogenized with TriZolTM (Life Technologies, Grand Island, N.Y.) to isolate RNA. QuantiTectTM Reverse Transcription Kit (Qiagen, Hilden, Germany) was used for reverse transcription on total RNA. cDNA was generated using the Quanta gScriptTM cDNA Synthesis Kit (Bioscience Inc., Gaithersburg, Md.). mRNA levels were quantified on a 7900HT real-time PCR system (Thermo Fisher Scientific) using TaqManTM real-time PCR with the following probes: Hs02758991_g1 (human GAPDH); Mm99999915_g1 (mouse Gapdh); Hs00236329 m1 (human BCL2L1); Hs00247147_m1 (human DRP1); Hs00545399_m1 (human PCSK9); Mm01263610_m1 (mouse Pcsk9); Hs00168352_m1 (human HMGCR); […]); Hs00181192_m1 (human LDLR); Mm00440169_m1 (mouse Ldlr); Hs01088691_m1 (human SREBP1); Mm00550338_m1 (mouse Srebp1); Hs00231674_m1 (human SREBP1a); custom primer (human SREBP1c); Hs01081784_m1 (human SREBP2); Mm01306292_m1 (mouse Srebp2); Hs01005622_m1 (human FASN); […]); Hs00167041_m1 (human HNF1A); Mm00493434_m1 (mouse Hnf1a); Hs00171168 (human APOE); Hs01059118_m1 (human ABCA1); Hs01103582_s1 (human JUN). Mouse SREBP-1c was analyzed by SYBERTM green PCR with the following primers: [NT] […] Protein concentrations were determined by the Pierce BCA AssayTM (Thermo Fisher Scientific). […] Protein levels were normalized to β-ACTIN, α-TUBULIN, or LAMIN A/C with the use of NIH ImageJ software for quantification.

The test system of assay [2] is PCSK9 secretion in primary human hepatocytes. Briefly: Secreted PCSK9 ELISA, primary human hepatocytes. The assay is classed as cell-based. The following applies: Mdivi-1 50 μM, 24 hours. As to the method:
Pitavastatin and T0901317 were synthesized and provided by Kowa Company, Ltd. (Tokyo, Japan), and treated at a dose of 1 μM in all experiments. DMSO (vehicle; final concentration 0.01%) and Mdivi-1 (>99.85% purity) were purchased from Sigma (St. Louis, Mo.). Mdivi-1 in DMSO vehicle was added at a concentration of 50 μM in all experiments. Mdivi-1 in DMSO vehicle was added to cell culture media in a 50 mL tube, vortexed hard for several minutes and then incubated at 37° C. prior to adding to cells to ensure the compound was fully solubilized.
HepG2 cells were obtained from ATCC (Manassas, Va.), and cultured in EMEM with L-glutamine (ATCC) medium, 1% pen/strep, with and without 10% FBS (Thermo Fisher Scientific, Waltham, Mass.) in 12-well plates (Corning, Durham, N.C.). HepG2 cells were plated at a density of 60-70% prior to treatment to avoid clumping. […] Cell viability was assessed by Trypan Blue exclusion using live/dead cell counting on a Countess™ II LT automated cell counter (Thermo Fisher Scientific).
Mouse serum PCSK9 was measured using the mouse proprotein convertase 9/PCSK9 quantikine ELISA kit (MPC900, R&D Systems, Minneapolis, Minn.), and human liver cell secreted PCSK9 using the human proprotein convertase 9/PCSK9 DuoSet ELISA (DY3888, R&D Systems), both according to manufacturers' protocols.
On the technique in general: ELISA stands for enzyme-linked immunosorbent assay.

For the compound `COc1cc(-n2c(S)nc3ccccc3c2=O)c(Cl)cc1Cl` [Mdivi-1, 3-(2,4-Dichloro-5-methoxyphenyl)-2,3-dihydro-2-thioxo-4(1H)-quinazolinone], in assay [1], the “BCL-XL abundance (protein)” value is listed as “increased” and the “BCL-XL expression (BCL2L1 mRNA)” value is reported as “increased”. Also, in assay [2], the “PCSK9 secretion by ELISA” value is recorded as “reduced”.
